# According to PubChem BioAssay (NCI):
#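 96-well plates; 48 h exposure; 5 concentrations. Endpoints by linear interpolation between flanking doses. Not reached: highest tested concentration assigned. Abbreviation: GI50, concentration required for 50% inhibition of growth. TGI: concentration producing complete growth inhibition.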
# What was measured:
# Test in all cases: DTP human tumour cell line panel, 48 h
# [1] = system: SNB-75 CNS
# [2] = system: DU-145 prostate
# [3] = system: ACHN renal
# [4] = system: NCI-H226 lung
# [5] = system: NCI-H522 lung
# [6] = system: OVCAR-8 ovarian
# [7] = system: IGROV1 ovarian
# [8] = system: NCI-H460 lung
# [9] = system: MDA-MB-231 breast
# [10] = system: EKVX NSCLC
# [11] = system: SF-295 CNS
# [12] = system: PC-3 prostate
# [13] = system: OVCAR-4 ovarian
# [14] = system: A549 NSCLC
# [15] = system: M14 melanoma
# [16] = system: HL-60(TB) leukemia
# [17] = system: BT-549 breast
# [18] = system: HCT-116 colon
# [19] = system: CAKI-1 renal
# [20] = system: OVCAR-5 ovarian
# [21] = system: SF-539 CNS
# [22] = system: NCI/ADR-RES ovarian
# [23] = system: UO-31 renal
# [24] = system: MALME-3M melanoma
# [25] = system: SNB-19 CNS
# [26] = system: SK-MEL-28 melanoma
# [27] = system: TK-10 renal
# [28] = system: 786-0 renal
# [29] = system: RXF 393 renal
# [30] = system: UACC-62 melanoma
# [31] = system: HT29 colon
# [32] = system: SK-MEL-2 melanoma
# [33] = system: SF-268 CNS
# [34] = system: NCI-H23 lung
# [35] = system: HOP-92 NSCLC
# [36] = system: MDA-MB-435
# [37] = system: SN12C renal
# [38] = system: HCT-15 colon
# [39] = system: SK-OV-3 ovarian
# [40] = system: LOX IMVI melanoma
# [41] = system: U251 CNS
# [42] = system: HOP-62 NSCLC
# [43] = system: K-562 leukemia
# [44] = system: HS 578T breast
# [45] = system: HCC-2998 colon
# [46] = system: KM12 colon
# [47] = system: RPMI-8226 leukemia
# [48] = system: SW-620 colon
# [49] = system: A498 renal
smiles,measurement,setting,value
Fc1cccc(Cl)c1/C=N/Nc1nc(N/N=C/c2c(F)cccc2Cl)nc(N2CCCCC2)n1,GI50,[1],2.36 µM
same,TGI,[1],10.5 µM
same,GI50,[2],11.7 µM
same,TGI,[2],> 100 µM
same,GI50,[3],3.04 µM
same,TGI,[3],12.8 µM
same,GI50,[4],6.48 µM
same,TGI,[4],> 100 µM
same,GI50,[5],2.57 µM
same,TGI,[5],9.68 µM
same,GI50,[6],3.89 µM
same,TGI,[6],> 100 µM
same,GI50,[7],3.16 µM
same,TGI,[7],> 100 µM
same,GI50,[8],3.14 µM
same,TGI,[8],> 100 µM
same,GI50,[9],7.65 µM
same,TGI,[9],24.4 µM
same,GI50,[10],1.54 µM
same,TGI,[10],> 100 µM
same,GI50,[11],1.01 µM
same,TGI,[11],10.7 µM
same,GI50,[12],2.06 µM
same,TGI,[12],> 100 µM
same,GI50,[13],2.58 µM
same,TGI,[13],> 100 µM
same,GI50,[14],3.04 µM
same,TGI,[14],> 100 µM
same,GI50,[15],2.4 µM
same,TGI,[15],9 µM
same,GI50,[16],2 µM
same,TGI,[16],> 100 µM
same,GI50,[17],4.45 µM
same,TGI,[17],20.9 µM
same,GI50,[18],2.83 µM
same,TGI,[18],11.9 µM
same,GI50,[19],3.01 µM
same,TGI,[19],15.5 µM
same,GI50,[20],3.8 µM
same,TGI,[20],> 100 µM
same,GI50,[21],7.65 µM
same,TGI,[21],24.3 µM
same,GI50,[22],2.76 µM
same,TGI,[22],> 100 µM
same,GI50,[23],2.01 µM
same,TGI,[23],> 100 µM
same,GI50,[24],2.21 µM
same,TGI,[24],6.26 µM
same,GI50,[25],3.25 µM
same,TGI,[25],18 µM
same,GI50,[26],3.41 µM
same,TGI,[26],> 100 µM
same,GI50,[27],3.73 µM
same,TGI,[27],9.11 µM
same,GI50,[28],3.44 µM
same,TGI,[28],14.7 µM
same,GI50,[29],2.65 µM
same,TGI,[29],11.5 µM
same,GI50,[30],2.35 µM
same,TGI,[30],9.5 µM
same,GI50,[31],2.9 µM
same,TGI,[31],> 100 µM
same,GI50,[32],1.69 µM
same,TGI,[32],3.91 µM
same,GI50,[33],4.22 µM
same,TGI,[33],52.9 µM
same,GI50,[34],3.42 µM
same,TGI,[34],16.8 µM
same,GI50,[35],1.47 µM
same,TGI,[35],5.36 µM
same,GI50,[36],2.86 µM
same,TGI,[36],> 100 µM
same,GI50,[37],2.85 µM
same,TGI,[37],> 100 µM
same,GI50,[38],2.82 µM
same,TGI,[38],> 100 µM
same,GI50,[39],3.65 µM
same,TGI,[39],15.4 µM
same,GI50,[40],3.77 µM
same,TGI,[40],> 100 µM
same,GI50,[41],3.56 µM
same,TGI,[41],22.5 µM
same,GI50,[42],2.85 µM
same,TGI,[42],12 µM
same,GI50,[43],3.08 µM
same,TGI,[43],> 100 µM
same,GI50,[44],2.44 µM
same,TGI,[44],15.4 µM
same,GI50,[45],3.68 µM
same,TGI,[45],> 100 µM
same,GI50,[46],2.93 µM
same,TGI,[46],> 100 µM
same,GI50,[47],2.26 µM
same,TGI,[47],> 100 µM
same,GI50,[48],3.51 µM
same,TGI,[48],> 100 µM
same,GI50,[49],2.4 µM
same,TGI,[49],13.2 µM
